Assay results published in patent US9278958B2, “Anti-cancer compounds” (KATHOLIEKE UNIVERSITEIT LEUVEN, priority 2012, dated 2016).
Read-outs that look alike come from different tables or passages of the source. Values belong to the molecule of their own block, whether it stands above or below them.

Tests used:
[1] = test system: DNA synthesis in CEM cells; assay: Antimetabolic activity assay, [CH3-3H]dThd incorporation (DNA synthesis), CEM; type: cell-based; conditions: Homo sapiens, CCRF-CEM, incorporation into TCA-insoluble material
Experimental: (§1) Radiolabeled precursors of DNA synthesis ([^3H-methyl]dThd), RNA synthesis ([5-^3H]Urd), and protein synthesis ([4,5-^3H]leu) were added to 10^5 CEM cell cultures in the 200 μl-wells of a microtiter plate at 1 μCi for each precursor in the presence of varying concentrations of the test compounds (5-fold dilution series). The cells were allowed to proliferate for 20 hrs at 37° C. in a humidified, CO2-controlled atmosphere. At the end of the incubation period, the contents of the wells were brought onto 25-mm glass fiber filters and further processed for measurement of acid-insoluble radioactivity.

[2] = test system: broad variety of tumor cell lines; assay: Cytostatic assays, summary over the panel of cell lines (Tables 2-4); type: cell-based
Experimental: (§2) To each well of a 96-well microtiter plate were added 5-7.5×10^4 cells and a given amount of the test compound. The cells were allowed to proliferate for 48 h to 96 h (depending on the nature of the cell line) at 37° C. in a humidified CO2-controlled atmosphere. At the end of the incubation period, the cells were counted in a Coulter Counter (Coulter Electronics Ltd, Harpenden Herts, United Kingdom).

[3] = test system: U87 glioma cells; assay: Cytostatic assay, U87; type: cell-based; conditions: Homo sapiens, U-87 MG; Table 3
How it was run: (§3)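 Test compound was added to wells holding 5-7.5×10^4 cells. After line-specific growth periods of 48 h to 96 h at 37° C in a moist atmosphere with regulated CO2, the number of cells was recorded by Coulter counting.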

[4] = test system: MT-4 cells; assay: Cytostatic assay, MT-4; type: cell-based; conditions: Homo sapiens, MT4; Table 2
How it was run: as §3

[5] = test system: L1210 cells; assay: Cytostatic assay, L1210; type: cell-based; conditions: Mus musculus, Table 2
How it was run: as §3

[6] = test system: Raji, human B-lymphoma cells; assay: Cytostatic assay, Raji; type: cell-based; conditions: Table 2
How it was run: as §3

[7] = test system: THP-1, human monocytic cells; assay: Cytostatic assay, THP-1; type: cell-based; conditions: Table 2
How it was run: as §3

[8] = test system: LNCaP (UZ) prostate cancer cells; assay: Cytostatic assay, LNCaP (UZ); type: cell-based; conditions: Homo sapiens, Table 4
How it was run: as §3

[9] = test system: PC-3 (UZ) prostate cancer cells; assay: Cytostatic assay, PC-3 (UZ); type: cell-based; conditions: Table 4
How it was run: as §3

[10] = test system: PLC/PRF/5 hepatoma cells; assay: Cytostatic assay, PLC/PRF/5; type: cell-based; conditions: Homo sapiens, Table 4
How it was run: as §3

[11] = test system: HOS CD4+ osteosarcoma cells; assay: Cytostatic assay, HOS CD4+; type: cell-based; conditions: Homo sapiens; Table 3
Experimental: as §2

[12] = test system: HUT-78 cells; assay: Cytostatic assay, HUT-78; type: cell-based; conditions: Homo sapiens, HuT78; Table 2
How it was run: as §3

[13] = test system: Caki-1 kidney carcinoma cells; assay: Cytostatic assay, Caki-1; type: cell-based; conditions: Homo sapiens, Table 3
How it was run: as §3

[14] = test system: RNA synthesis in CEM cells; assay: Antimetabolic activity assay, [5-3H]uridine incorporation (RNA synthesis), CEM; type: cell-based; conditions: Homo sapiens, CCRF-CEM, incorporation into TCA-insoluble material
Experimental: as §1

[15] = test system: Sup T1 cells; assay: Cytostatic assay, Sup T1; type: cell-based; conditions: Homo sapiens, Table 2, read-out: Cytostatic activity (μM) Sup T 1
How it was run: as §3

[16] = test system: protein synthesis in CEM cells; assay: Antimetabolic activity assay, [4,5-3H]leucine incorporation (protein synthesis), CEM; type: cell-based; conditions: Homo sapiens, CCRF-CEM, incorporation into TCA-insoluble material
Experimental: as §1

[17] = test system: BPH-1 (UZ); assay: Cytostatic assay, BPH-1 (UZ); type: cell-based; conditions: Homo sapiens, Table 4
How it was run: as §3

[18] = test system: HL60, human leukemia cells; assay: Cytostatic assay, HL-60; type: cell-based; conditions: Table 2
How it was run: as §3

[19] = test system: RNA synthesis in Raji cells; assay: Antimetabolic activity assay, [5-3H]uridine incorporation (RNA synthesis), Raji; type: cell-based; conditions: Homo sapiens, incorporation into TCA-insoluble material
Experimental: [The procedure below names another cell line; the source lists this cell line under the same test.] as §1

[20] = test system: HeLa cervix carcinoma cells; assay: Cytostatic assay, HeLa; type: cell-based, human; conditions: Homo sapiens; Table 3; read-out: Cytostatic activity (μM) Hela
How it was run: as §3

[21] = test system: Daudi, human B-lymphoma cells; assay: Cytostatic assay, Daudi; type: cell-based; conditions: Table 2
Experimental: as §2

[22] = test system: MCF-7 mammary carcinoma cells; assay: Cytostatic assay, MCF-7; type: cell-based; conditions: Homo sapiens, MCF7; Table 3
How it was run: as §3

[23] = test system: HT29 colorectal carcinoma cells; assay: Cytostatic assay, HT29; type: cell-based; conditions: Homo sapiens, HT-29; Table 3
How it was run: as §3

[24] = test system: MT-2 cells; assay: Cytostatic assay, MT-2; type: cell-based; conditions: Homo sapiens, MT2; Table 2
How it was run: as §3

[25] = test system: DNA synthesis in Raji cells; assay: Antimetabolic activity assay, [CH3-3H]dThd incorporation (DNA synthesis), Raji; type: cell-based; conditions: Homo sapiens, incorporation into TCA-insoluble material
Experimental: [The procedure below names another cell line; the source lists this cell line under the same test.] as §1

[26] = test system: HEL embryonic lung fibroblast cells; assay: Cytostatic assay, HEL; type: cell-based; conditions: Homo sapiens, Table 3
How it was run: as §3

[27] = test system: Caki-2 kidney carcinoma cells; assay: Cytostatic assay, Caki-2; type: cell-based; conditions: Homo sapiens, Table 3
How it was run: as §3

[28] = test system: 22Rv1 (UZ) prostate cancer cells; assay: Cytostatic assay, 22Rv1 (UZ); type: cell-based; conditions: Homo sapiens, Table 4
How it was run: as §3

[29] = test system: U87 CD4+/CXCR4+/CCR5+ glioma cells; assay: Cytostatic assay, U87 CD4+/CXCR4+/CCR5+; type: cell-based; conditions: Homo sapiens, Glioma cell; Table 3
Experimental: as §2

[30] = test system: DU145 (UZ) prostate cancer cells; assay: Cytostatic assay, DU145 (UZ); type: cell-based; conditions: Homo sapiens, DU-145; Table 4
How it was run: as §3

[31] = test system: FM3A mammary carcinoma cells; assay: Cytostatic assay, FM3A; type: cell-based, murine; conditions: Mus musculus, Table 3
How it was run: as §3

[32] = test system: HepG2C3A hepatoma cells; assay: Cytostatic assay, HepG2C3A; type: cell-based; conditions: Homo sapiens, HepG2/C3A; Table 4
How it was run: as §3

[33] = test system: U937, human monocytic cells; assay: Cytostatic assay, U937; type: cell-based; conditions: U-937, Table 2
How it was run: as §3

[34] = test system: BAEC aortic endothelial cells; assay: Cytostatic assay, BAEC; type: cell-based, bovine; conditions: Bos taurus, Table 3
How it was run: as §3

[35] = test system: 293T embryonic kidney cells; assay: Cytostatic assay, 293T; type: cell-based; conditions: Homo sapiens, HEK-293T; Table 3
How it was run: as §3

[36] = test system: C8166 cells; assay: Cytostatic assay, C8166; type: cell-based; conditions: Homo sapiens, Table 2
How it was run: as §3

[37] = test system: Molt4/C8 cells; assay: Cytostatic assay, Molt4/C8; type: cell-based; conditions: Table 2
How it was run: as §3

[38] = test system: CEM cells; assay: Cytostatic assay, CEM; type: cell-based; conditions: Homo sapiens, CCRF-CEM
How it was run: as §3

[39] = test system: protein synthesis in Raji cells; assay: Antimetabolic activity assay, [4,5-3H]leucine incorporation (protein synthesis), Raji; type: cell-based; conditions: Homo sapiens, incorporation into TCA-insoluble material
Experimental: [The procedure below names another cell line; the source lists this cell line under the same test.] as §1

[40] = test system: OST TK- osteosarcoma cells; assay: Cytostatic assay, OST TK-; type: cell-based; conditions: Homo sapiens; Table 3
How it was run: as §3

[41] = test system: PC3 (rega) prostate cancer cells; assay: Cytostatic assay, PC3 (rega); type: cell-based; conditions: Table 4
How it was run: as §3

[42] = test system: PNT1A (UZ) prostate cells; assay: Cytostatic assay, PNT1A (UZ); type: cell-based; conditions: Homo sapiens, Table 4
How it was run: as §3

[43] = test system: Huh-7 hepatoma cells; assay: Cytostatic assay, Huh-7; type: cell-based; conditions: Homo sapiens, Table 4
How it was run: as §3

[44] = Homo sapiens, HuT78, range for the seven compounds, MT-4 and HUT-78 cells, read-out: IC50 range, cytostatic activity against MT-4 and HUT-78 cells
[45] = range for the seven compounds against the 5 tumor cell lines, read-out: IC50 range, cytostatic activity against CEM, Molt4/C8, Sup T1, MT-2 and C8166 cells
[46] = Table 1a, read-out: IC50 μM (CEM)
[47] = Table 2, read-out: Cytostatic activity (μM) CEM

- IC50 [1]: 3.2 ± 1.2 µM
- IC50 [2, 44]: 8.5 to 60 µM
- IC50 [2, 45]: 0.22 to 3.4 µM
- IC50 [3]: 51 ± 2.1 µM
- IC50 [5]: 41 ± 2 µM
- IC50 [6]: 46 ± 1.4 µM
- IC50 [7]: 41 ± 2.8 µM
- IC50 [8]: 0.38 ± 0.1 µM
- IC50 [9]: 0.6 ± 0.071 µM
- IC50 [10]: 28 ± 2.8 µM
- IC50 [11]: 50 ± 12 µM
- IC50 [12]: 38 ± 8.5 µM
- IC50 [13]: 2.3 ± 0.14 µM
- IC50 [14]: 1.9 ± 0.7 µM
- IC50 [15]: 1.3 ± 0.21 µM
- IC50 [16]: 0.66 ± 0.13 µM
- IC50 [17]: 46 ± 4.9 µM
- IC50 [18]: 6.1 ± 8.6 µM
- IC50 [19]: 27 ± 14 µM
- IC50 [20]: 36 ± 7 µM
- IC50 [21]: 37 ± 3.5 µM
- IC50 [22]: 25 ± 11 µM
- IC50 [23]: 30 ± 5.7 µM
- IC50 [24]: 0.57 ± 0.078 µM
- IC50 [25]: 39 ± 33 µM
- IC50 [27]: 45 ± 7.1 µM
- IC50 [28]: 22 ± 9.2 µM
- IC50 [29]: 51 ± 4.9 µM
- IC50 [30]: 15 ± 8.5 µM
- IC50 [31]: 50 ± 2.8 µM
- IC50 [32]: 8.1 ± 0.71 µM
- IC50 [33]: 42 ± 3.5 µM
- IC50 [34]: 27 ± 7.1 µM
- IC50 [36]: 2.2 ± 0.35 µM
- IC50 [37]: 0.56 ± 0.57 µM
- IC50 [38, 46]: 1.7 µM
- IC50 [38, 47]: 1.7 ± 1.1 µM
- IC50 [39]: 43 ± 7 µM
- IC50 [40]: 8.2 ± 6.9 µM
- IC50 [41]: 0.25 ± 0.27 µM
- IC50 [42]: 40 ± 7.1 µM
- IC50 [43]: 1.3 ± 0.28 µM
SMILES: COC(=O)c1cc(CCc2ccsc2)sc1N [TR595, 2-Amino-5-(2-thiophen-3-yl-ethyl)-thiophene-3-carboxylic acid methyl ester]
- IC50 [4]: 30 ± 4.9 µM
- IC50 [26]: 30 ± 13 µM
- IC50 [35]: 44 ± 5.7 µM

- IC50 [1]: 3.1 ± 1 µM
- IC50 [2, 44]: 8.5 to 60 µM
- IC50 [2, 45]: 0.22 to 3.4 µM
- IC50 [3]: 50 ± 3.5 µM
- IC50 [5]: 25 µM
- IC50 [6]: 50 ± 3.5 µM
- IC50 [7]: 38 ± 6.4 µM
- IC50 [8]: 0.35 ± 0.014 µM
- IC50 [9]: 0.51 ± 0.064 µM
- IC50 [10]: 44 ± 2.1 µM
- IC50 [11]: 48 ± 1.4 µM
- IC50 [12]: 36 ± 13 µM
- IC50 [13]: 6.5 ± 3.5 µM
- IC50 [14]: 0.96 ± 0.37 µM
- IC50 [15]: 1.1 ± 0.73 µM
- IC50 [16]: 0.61 ± 0.04 µM
- IC50 [17]: 52 ± 1.4 µM
- IC50 [18]: 5.7 ± 7.2 µM
- IC50 [19]: > 100 µM
- IC50 [20]: 38 ± 2.8 µM
- IC50 [21]: 38 ± 2.1 µM
- IC50 [22]: 36 ± 9.2 µM
- IC50 [23]: 41 ± 2.8 µM
- IC50 [24]: 0.79 ± 0.092 µM
- IC50 [25]: ≥ 100 µM
- IC50 [27]: 43 ± 4.2 µM
- IC50 [28]: 9.1 ± 0.35 µM
- IC50 [29]: 73 ± 3.5 µM
- IC50 [30]: 5.4 ± 0.96 µM
- IC50 [31]: 67 ± 18 µM
- IC50 [32]: 10 ± 5.2 µM
- IC50 [33]: 46 ± 7.1 µM
- IC50 [34]: 26 ± 4.2 µM
- IC50 [36]: 2.2 µM
- IC50 [37]: 1.2 ± 0.6 µM
- IC50 [38, 46]: 1.5 µM
- IC50 [38, 47]: 1.5 ± 1.3 µM
- IC50 [39]: 84 ± 6 µM
- IC50 [40]: 9.8 ± 7.4 µM
- IC50 [41]: 0.24 ± 0.19 µM
- IC50 [42]: 39 ± 3.5 µM
- IC50 [43]: 1.7 ± 0.21 µM
SMILES: COC(=O)c1cc(CCc2ccccc2)sc1N [TR575, 2-Amino-5-phenethyl-thiophene-3-carboxylic acid methyl ester]
- IC50 [4]: 27 ± 0.71 µM
- IC50 [26]: 38 ± 12 µM
- IC50 [35]: 45 ± 16 µM
